Reference: patent publication US5849753A, “Pyridyl imidazole derivatives and processes for the preparation thereof” (Korea Research Institute of Chemical Technology, priority 1994, dated 1998)

Legend:
renal hypertensive rat [1] = assay: Blood pressure lowering effect in renal hypertension (renal hypertensive rats, intravenous or oral); type: in vivo, male Sprague-Dawley rats; settings: 3 mg, read-out: Maxium Blood Pressure Lowering Effect(%)
Text: (§1) To induce renal hypertension, left renal artery of 4 week-old male Sprague-Dawley rats(from The Korea Research Institute of Chemical Technology) was ligated. The rats were anesthetized with ether and the surgical region on the left abdomen of the rat was shaved, disinfected, and then incised about 1 cm vertically. The renal artery near abdominal aorta was isolated carefully from surrounding tissues and veins, and then ligated completely with a suture(4/0 sterile surgical silk). The muscular strata and skin of the surgical area were sutured with a suture(4/0 sterile surgical silk). The surgical region was disinfected to prevent infection and thereafter, 200 to 250 mg/Kg/day of cephazolin sodium was injected intramuscularly for 2 days. 6 to 8 days after the ligation, rats showing systolic pressure of more than 180 mmHg were selected for renal hypertension test. The blood pressure was determined by a tail-cuff method from the tail under unanesthetized condition(Gerold, M. et al., Arzneimittrel-Forsch, 18, 1285(1968)).
(§2) Each of the compounds to be tested was administered intravenously or orally into the renal hypertensive rat. The blood pressure of the rats was determined by direct method(Chiu, A. T. et al., J. Pharmacol. Exp. Ther. 250, 867(1989)) using a catheter. The rats were anesthetized with ketamine hydrochloride(125 mg/kg, i.p.) and a catheter was filled with saline and inserted into a carotid artery and carotid vein. The surgical area was sutured with a metal clip. The rats were relaxed at least 3 hours and the catheter in the carotid artery was adapted to an isotec pressure transducer to determine their blood pressure and heart rate with a physiograph(Linearcorder WR3310). After the blood pressure was stabilized, the test compound was administered intravenously or orally. For intravenous administration, the administered volume and washing volume were 1.0 ml/Kg and 0.2 ml, respectively. The blood pressure and heart rate were measured in regular intervals up to 24 hours after the administration of the test compound and compared with those measured after the administration of the control compound Losartan.
(§3) The test compound was dissolved in 0.05N KOH for intravenous administration and suspended in Tween 80 for oral administration.

[2] = tested on: furosemide-administered dogs; assay: Duration of action in furosemide-administered dogs; type: in vivo, dog; settings: for blood pressure lowering effect with time: 1 mg, per os
Procedure: (§4) The test dogs were anesthetized with 30 mg/kg of pentobarbital sodium by intravenous injection and the left femoral artery and femoral vein were separated carefully. Silicone catheter, specially prepared and filled with saline treated with heparin(1,000 IU/ml), was cannulated into the blood vessels. After the surgery, the dogs were constrained to measure their blood pressure continuously with Gould 2000 physiograph adapted to a Grass P23 XL pressure transducer; and their heart rates were monitored with ECG/Biotacho amplifier. The dogs were tested at least 2 days after the surgery.
10 mg/kg of furosemide was injected intramuscularly 18 hours(in case of intravenous injection, 2 hours) before the beginning of the test (administration of the test compound) to improve the activity of renin in blood plasma. After the injection of furosemide, neither food nor water was provided. […] The blood pressure and heart rate were measured up to 8 hours after the administration of each test compound.
The compound of Example 8 and the Merck compound were administered orally to the furosemide-administrated dogs as in test 3(i), and blood pressure lowering effect was measured with time.

[3] = Metabolite analysis (enzyme digestion test); type: in vitro ADME, male rats; settings: rat liver microsome and NADPH, 1 hour, 37° C.
Procedure: Enzyme digestion test was executed in order to detect the metabolite of the test compound in vivo.
A liver microsome and NADPH system of male rats were added to each of the present compound(Example 8) and the control compound(Merck), and the mixture was incubated for 1 hour at 37° C. The resultant was extracted with methanol or dichloromethane, and, thereafter, the organic layer was evaporated to obtain a residue. The residue was analyzed using high pressure liquid chromatography.

renal hypertensive rat [4] = assay: Blood pressure lowering effect on oral administration to rats at several doses; type: in vivo, male Sprague-Dawley rats
Text: as §1, §2, §3
(iii) Blood pressure lowering effect The present compounds, Losartan(Dup 753) and the Merck compound were administrated orally to rats in 10, 3, 1, 0.3 and 0.1 mg/kg under the same condition as in (ii) and the blood pressure lowering effect was determined.

unanesthetized dogs = assay: Blood pressure lowering effect in unanesthetized dogs (furosemide treated); type: in vivo, dog; design: Maximum blood pressure lowering effect in a dog: unit not given here; settings: oral; for Blood pressure variation with time: dogs, 1.0 mg
Procedure: A number of dogs were fed freely in a feeding room and those weighing 7 to 12 kg in good health were selected regardless of their gender.
as §4
10 mg/kg of furosemide was injected intramuscularly 18 hours(in case of intravenous injection, 2 hours) before the beginning of the test (administration of the test compound) to improve the activity of renin in blood plasma. After the injection of furosemide, neither food nor water was provided. The test compound was suspended in Tween 80 and administered in an amount of 20 mg/kg orally. The blood pressure and heart rate were measured up to 8 hours after the administration of each test compound.
The maximum blood pressure lowering effect of the present compounds and the control compounds were determined in different amounts of administration using the same method as […]

With `CCCCc1nc2cc(-c3ccccn3)c(C(OC)OC)nc2n1Cc1ccc(-c2ccccc2-c2nnn[nH]2)cc1` [Example 8, 2-butyl-5-dimethoxymethyl-6-(pyridin-2-yl)-3-[2'-(1H-tetrazol-5-yl)-biphenyl-4-ylmethyl]-3H-imidazo[4,5-b]pyridine] the change in vivo at 3 mg (renal hypertensive rat [1]) was -50%, the “blood pressure lowering effect with time” value ([2]; 0 min) was 0% and the “blood pressure lowering effect with time” value ([2]; 10 min) was 0%. The “blood pressure lowering effect with time” value ([2]; 20 min) was -8%, the “blood pressure lowering effect with time” value ([2]; 30 min) was -16.2% and the “blood pressure lowering effect with time” value ([2]; 60 min) was -23.8%. The “blood pressure lowering effect with time” value ([2]; 90 min) was -26.0%, the “blood pressure lowering effect with time” value ([2]; 120 min) was -30.0% and the “blood pressure lowering effect with time” value ([2]; 150 min) was -31.7%. For the same compound, the “blood pressure lowering effect with time” value ([2]; 180 min) was -31.7%, the “blood pressure lowering effect with time” value ([2]; 210 min) was -31.2% and the “blood pressure lowering effect with time” value ([2]; 240 min) was -32.7%. For the same compound, the “blood pressure lowering effect with time” value ([2]; 270 min) was -33.9%, the “blood pressure lowering effect with time” value ([2]; 300 min) was -34.9% and the “blood pressure lowering effect with time” value ([2]; 330 min) was -37.0%. The “blood pressure lowering effect with time” value ([2]; 360 min) was -35.5%, the “blood pressure lowering effect with time” value ([2]; 390 min) was -36.4% and the “blood pressure lowering effect with time” value ([2]; 420 min) was -34.9%. For the same compound, the “blood pressure lowering effect with time” value ([2]; 450 min) was -33.0%, the “blood pressure lowering effect with time” value ([2]; 480 min) was -33.0% and the “maximum blood pressure lowering effect lasted up to (after the administration)” value ([2]; furosemide-administered dogs, oral, as shown in Table 6) was “up to 8 hours”. For the same compound, the “metabolite from the enzymatic digestion” value ([3]; HPLC) was “no metabolite”, the “stability against the enzymatic digestion” value ([3]; in contrast with the Merck compound) was “good stability” and the “blood pressure lowering effect” value (renal hypertensive rat [4]; 1 mg/kg) was 32%. For the same compound, the “blood pressure lowering effect” value (renal hypertensive rat [4]; 3 mg/kg) was 35-37%, the “Maximum blood pressure lowering effect in a dog” value (unanesthetized dogs; 0.1 mg/kg) was 17 and the “Maximum blood pressure lowering effect in a dog” value (unanesthetized dogs; 0.3 mg/kg) was 32. The “Maximum blood pressure lowering effect in a dog” value (unanesthetized dogs; 1 mg/kg) was 34, the “Blood pressure variation with time” value (unanesthetized dogs; 0.5 hr) was -32.7% and the “Blood pressure variation with time” value (unanesthetized dogs; 1 hr) was -29.9%. The “Blood pressure variation with time” value (unanesthetized dogs; 2 hr) was -33.0%, the “Blood pressure variation with time” value (unanesthetized dogs; 4 hr) was -26.8% and the “Blood pressure variation with time” value (unanesthetized dogs; 6 hr) was -25.0%. For the same compound, the “Blood pressure variation with time” value (unanesthetized dogs; 8 hr) was -19.7%.
